Measured values as given in PubChem BioAssay AID1918949 (Molecular Pharmacology Branch, DTP, NCI, 2023).
pIC50: −log10 of the molar value. Values joined by “and” are separate entries in the source; they are usually repeats but may differ in a detail not shown here. Equal values may be shown once. Values belong to the compound of their own block, whether it stands above or below them.

Tested on: K24384-001-R-PDC complex spheroid viability
Test: Anticancer human tumor K24384-001-R-PDC patient-derived pancreatic adenocarcinoma cell line growth inhibition
Conditions: for viability, T/C: stronger effect = lower value
How it was run: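 Complex spheroids of tumor cells with HUVEC and human MSCs, exposed to iadademstat combined with other agents. Each agent tested in half-log steps from near clinical Cmax (else 10 microM top), DMSO ≤0.25%.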

[1] = curve of first compound, second compound 0.1 µM
[2] = curve of first compound, second compound 0.316 µM
[3] = curve of first compound, second compound 1 µM
[4] = curve of first compound, second compound 3.16 µM
[5] = curve of first compound, second compound 10 µM
[6] = second compound 0.1 µM, first compound 0.0316 µM
[7] = second compound 0.1 µM, first compound 0.1 µM
[8] = second compound 0.316 µM, first compound 0.0316 µM
[9] = second compound 0.316 µM, first compound 0.1 µM
[10] = second compound 1 µM, first compound 0.0316 µM
[11] = second compound 1 µM, first compound 0.1 µM
[12] = second compound 3.16 µM, first compound 0.0316 µM
[13] = second compound 3.16 µM, first compound 0.1 µM
[14] = second compound 10 µM, first compound 0.0316 µM
[15] = second compound 10 µM, first compound 0.1 µM
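Also: spheroids exposed to agents for seven days before luminescence viability reading.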
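For viability, T/C in this document: 100% = DMSO vehicle control viability.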

SMILES: CC(C)c1c(-c2ccccc2)nc2c(C#N)c[nH]n2c1=O + NC1CC1c1ccc(-c2cccc(O)c2)cc1
pIC50 [1]: < 5.00
pIC50 [2]: < 5.00
pIC50 [3]: < 5.00
pIC50 [4]: < 5.00
pIC50 [5]: < 5.00
viability, T/C [6]: 84%
viability, T/C [7]: 114%
viability, T/C (second compound 0.1 µM, first compound 0.316 µM): 71%
viability, T/C (second compound 0.1 µM, first compound 1 µM): 86.7%
viability, T/C (second compound 0.1 µM, first compound 3.16 µM): 73.1%
viability, T/C (second compound 0.1 µM, first compound 10 µM): 76.3%
viability, T/C [8]: 119%
viability, T/C [9]: 84.1%
viability, T/C (second compound 0.316 µM, first compound 0.316 µM): 65.9%
viability, T/C (second compound 0.316 µM, first compound 1 µM): 86%
viability, T/C (second compound 0.316 µM, first compound 3.16 µM): 90.8%
viability, T/C (second compound 0.316 µM, first compound 10 µM): 74.8%
viability, T/C [10]: 82.3%
viability, T/C [11]: 62.7%
viability, T/C (second compound 1 µM, first compound 0.316 µM): 72.6%
viability, T/C (second compound 1 µM, first compound 1 µM): 65%
viability, T/C (second compound 1 µM, first compound 3.16 µM): 70.1%
viability, T/C (second compound 1 µM, first compound 10 µM): 69.8%
viability, T/C [12]: 85.5%
viability, T/C [13]: 79%
viability, T/C (second compound 3.16 µM, first compound 0.316 µM): 91.4%
viability, T/C (second compound 3.16 µM, first compound 1 µM): 66.9%
viability, T/C (second compound 3.16 µM, first compound 3.16 µM): 67.3%
viability, T/C (second compound 3.16 µM, first compound 10 µM): 72.2%
viability, T/C [14]: 78.8%
viability, T/C [15]: 86.2%
viability, T/C (second compound 10 µM, first compound 0.316 µM): 84.8%
viability, T/C (second compound 10 µM, first compound 1 µM): 76.5%
viability, T/C (second compound 10 µM, first compound 3.16 µM): 70.8%
viability, T/C (second compound 10 µM, first compound 10 µM): 76.8%

SMILES: Cn1ncnc1C1c2n[nH]c(=O)c3cc(F)cc(c23)NC1c1ccc(F)cc1 (stereo not given) + NC1CCC(NC2CC2c2ccccc2)CC1
pIC50 [1]: < 7.00
pIC50 [2]: < 7.00
pIC50 [3]: < 7.00
pIC50 [4]: < 7.00
pIC50 [5]: < 7.00
viability, T/C (second compound 0.1 µM, first compound 0.000316 µM): 92.4%
viability, T/C (second compound 0.1 µM, first compound 0.001 µM): 115%
viability, T/C (second compound 0.1 µM, first compound 0.00316 µM): 81.7%
viability, T/C (second compound 0.1 µM, first compound 0.01 µM): 88.6%
viability, T/C [6]: 80%
viability, T/C [7]: 73.7%
viability, T/C (second compound 0.316 µM, first compound 0.000316 µM): 96.5%
viability, T/C (second compound 0.316 µM, first compound 0.001 µM): 92.8%
viability, T/C (second compound 0.316 µM, first compound 0.00316 µM): 104%
viability, T/C (second compound 0.316 µM, first compound 0.01 µM): 93.5%
viability, T/C [8]: 104%
viability, T/C [9]: 72.4%
viability, T/C (second compound 1 µM, first compound 0.000316 µM): 104%
viability, T/C (second compound 1 µM, first compound 0.001 µM): 100%
viability, T/C (second compound 1 µM, first compound 0.00316 µM): 89.5%
viability, T/C (second compound 1 µM, first compound 0.01 µM): 88.7%
viability, T/C [10]: 84.8%
viability, T/C [11]: 70.2%
viability, T/C (second compound 3.16 µM, first compound 0.000316 µM): 92.9%
viability, T/C (second compound 3.16 µM, first compound 0.001 µM): 95.2%
viability, T/C (second compound 3.16 µM, first compound 0.00316 µM): 94.6%
viability, T/C (second compound 3.16 µM, first compound 0.01 µM): 98.5%
viability, T/C [12]: 98.6%
viability, T/C [13]: 82.1%
viability, T/C (second compound 10 µM, first compound 0.000316 µM): 85.6%
viability, T/C (second compound 10 µM, first compound 0.001 µM): 105%
viability, T/C (second compound 10 µM, first compound 0.00316 µM): 94.7%
viability, T/C (second compound 10 µM, first compound 0.01 µM): 103%
viability, T/C [14]: 83.1%
viability, T/C [15]: 91.6%

SMILES: NC1CCC(NC2CC2c2ccccc2)CC1 (stereo not given)
viability, T/C (compound 0.316 µM): 83.6% and 74.8%
pIC50 (compound alone, run of 02/15/2022): < 5.00

Continued, in another order:

pIC50 (curve of compound): < 5.00
SMILES: CC(C)c1c(-c2ccccc2)nc2c(C#N)c[nH]n2c1=O
viability, T/C (compound 0.0316 µM): 89.9% and 82.5%
viability, T/C (compound 0.1 µM): 88.6% and 104%
viability, T/C (compound 0.316 µM): 96.9% and 93.2%
viability, T/C (compound 1 µM): 94.9% and 81.5%
viability, T/C (compound 3.16 µM): 97.4% and 69.9%
viability, T/C (compound 10 µM): 104% and 91.6%

pIC50 (curve of compound): < 5.52
SMILES: CCN(c1cc(-c2ccc(CN3CCOCC3)cc2)cc(C(=O)NCc2c(C)cc(C)[nH]c2=O)c1C)C1CCOCC1
viability, T/C (compound 0.00949 µM): 114% and 95.8%
viability, T/C (compound 0.03 µM): 107% and 113%
viability, T/C (compound 0.0949 µM): 117% and 106%
viability, T/C (compound 0.3 µM): 96.4% and 99.3%
viability, T/C (compound 0.949 µM): 81.8% and 84.4%
viability, T/C (compound 3 µM): 63.5% and 72.9%

pIC50 (curve of compound): < 6.00
SMILES: Nc1ncn(C2CC(O)C(CO)O2)c(=O)n1 (stereo not given)
viability, T/C (compound 0.00316 µM): 98.6% and 96.8%
viability, T/C (compound 0.01 µM): 88.9% and 94.9%
viability, T/C (compound 0.0316 µM): 93% and 100%
viability, T/C (compound 0.1 µM): 84.2% and 77.6%
viability, T/C (compound 0.316 µM): 75.6% and 75.5%
viability, T/C (compound 1 µM): 75% and 87.2%

pIC50 (curve of compound): < 6.00
SMILES: COc1cc(Nc2ncc3c(n2)-c2ccc(Cl)cc2C(c2c(F)cccc2OC)=NC3)ccc1C(=O)O
viability, T/C (compound 0.00316 µM): 106% and 74.5%
viability, T/C (compound 0.01 µM): 94.8% and 78.3%
viability, T/C (compound 0.0316 µM): 85.9% and 62.4%
viability, T/C (compound 0.1 µM): 69.7% and 63.6%
viability, T/C (compound 0.316 µM): 79.4% and 69.7%
viability, T/C (compound 1 µM): 87.7% and 70.3%
